Results: US6593342B1, “Pharmaceutical compositions comprising 2-quinolones” (Laboratoire L. Lafon, priority 1998, dated 2003)

Key:
SW1088 = experiment: MTT test, SW1088; format: cell-based; conditions: Homo sapiens, 10^−5 M, 72 hours, control = 100%, mean ± SEM, read-out: average optical density (MTT), percentage relative to control
Protocol: (§1) The influence of the compounds of formulae (I) and (Ia) on non-clonogenic cells was evaluated with the aid of the MTT calorimetric test.
(§2) The principle of the MTT test is based on the mitochondrial reduction, by the metabolically active live cells, of the yellow-colored product MTT (3-(4,5-dimethylthiazol-2-yl)-2,5-diphenyltetrazolium bromide) to a blue-colored product, formazan. The amount of formazan thus obtained is directly proportional to the amount of live cells present in the culture well(s). This amount of formazan is measured by spectrophotometry.
(§3) The cell lines are maintained as a monolayer culture at 37° C. in stoppered culture dishes containing MEM 25 MM HEPES (Minimum Essential Medium) base medium. This medium is suited to the growth of a range of various mammalian diploid or primary cells. This medium is then supplemented with:
(§4) an amount of 5% of FCS (Foetal Calf Serum) decomplemented at 56° C. for 1 hour,
(§5) 0.6 mg/ml of L-glutamine,
(§6) 200 μg/ml of streptomycin,
(§7) The 12 human cancer cell lines which were used were obtained from the American Type Culture Collection (ATCC, Rockville, Md., USA). These 12 cell lines are:
SW1088 (code ATCC: HTB-12) which is an astrocytoma,
(§8) Experimentally: 100 μl of a cell suspension containing 20 000 to 50 000 (depending on the cell type used) cells/ml of culture medium are inoculated in 96-well flat-bottomed multi-well plates and are incubated at 37° C., under an atmosphere comprising 5% CO2 and 70% humidity. After incubation for 24 hours, the culture medium is replaced with 100 μl of fresh medium containing either the various test compounds at concentrations ranging from 10^−5 to 10^−10 M or the solvent used to dissolve the test products (control condition). After incubation for 72 hours under the above conditions, the culture medium is replaced with 100 μl of a yellowish solution of MTT dissolved at a rate of 1 mg/ml in RPMI 1640. The microplates are reincubated for 3 hours at 37° C. and are then centrifuged for 10 minutes at 400×g. The yellowish solution of MTT is removed and the blue formazan crystals formed in the cell are dissolved in 100 μl of DMSO. The microplates are then shaken for 5 minutes. The intensity of the resulting blue coloration, and thus of the conversion of the yellow product MTT into blue formazan by the cells that are still alive at the end of the experiment, is quantified by spectrophotometry using a Dynatech Immunoassay System machine at wavelengths of 570 nm and 630 nm corresponding, respectively, to the maximum absorption wavelengths of formazan and to the background noise. Software incorporated in the spectrophotometer calculates the average optical density values and the standard deviation (SD) and standard error of mean (SEM) values.
(§9) By way of example, the results of the average optical density, expressed as a percentage relative to the average optical density measured under the control condition (set equal to 100%), obtained at a concentration of 10^−5 M on the 12 abovementioned tumor cell lines are given in Table II.

A549 = experiment: MTT test, A549; format: cell-based; conditions: Homo sapiens, 10^−5 M, 72 hours, control = 100%, mean ± SEM, read-out: average optical density (MTT), percentage relative to control
Protocol: as §1, §2, §3, §4, §5, §6, §7
(§10) A549 (code ATCC: CCL-185) and A-427 (code ATCC: HTB-53) which are two non-small-cell lung cancers,
as §8, §9

HCT-15 = experiment: MTT test, HCT-15; format: cell-based; conditions: Homo sapiens, 10^−5 M, 72 hours, control = 100%, mean ± SEM, read-out: average optical density (MTT), percentage relative to control
Protocol: as §1, §2, §3, §4, §5, §6, §7
(§11) HTC-15 (code ATCC: CCL-225) and LoVo (code ATCC: CCL-229) which are two colorectal cancers,
as §8, §9

A-427 = experiment: MTT test, A-427; format: cell-based; conditions: Homo sapiens, 10^−5 M, 72 hours, control = 100%, mean ± SEM, read-out: average optical density (MTT), percentage relative to control
Protocol: as §1, §2, §3, §4, §5, §6, §7, §10, §8, §9

T24 = experiment: MTT test, T24; format: cell-based; conditions: Homo sapiens, T-24, 10^−5 M, 72 hours, control = 100%, mean ± SEM, read-out: average optical density (MTT), percentage relative to control
Protocol: as §1, §2, §3, §4, §5, §6, §7
(§12) J82 (code ATCC: HTB-1) and T24 (code ATCC: HTB-4) which are two bladder cancers,
as §8, §9

[1] = Determination of the maximum tolerated dose (MTD); conditions: mouse, in vivo, ip; B6D2F1/Jico mice; single intraperitoneal administration, 2.5 to 160 mg/kg; survival over 14 days
Protocol: 3.—Determination of the Maximum Tolerated Dose (MTD):
The evaluation of the maximum tolerated dose was carried out on 4- to 6-week-old B6D2F1/Jico mice. The compounds were administered intraperitoneally at increasing doses graduating from 2.5 to 160 mg/kg. The value of the MTD (expressed in mg/kg) is determined from the observation of the survival rate of the animals over a 14-day period after a single administration of the product under consideration. The weight change of the animals is also monitored during this period. When the value of the MTD is greater than 160 mg/kg, the MTD value is likened to 160 mg/kg by default.
The results of the estimation of the maximum tolerated dose (MTD) are collated in the following table: […]

T-47D = experiment: MTT test, T-47D; format: cell-based; conditions: Homo sapiens, T47D, 10^−5 M, 72 hours, control = 100%, mean ± SEM, read-out: average optical density (MTT), percentage relative to control
Protocol: as §1, §2, §3, §4, §5, §6, §7
(§13) T-47D (code ATCC: HTB-133) and MCF7 (code ATCC: HTB-22) which are two breast cancers,
as §8, §9

PC-3 = experiment: MTT test, PC-3; format: cell-based; conditions: Homo sapiens, 10^−5 M, 72 hours, control = 100%, mean ± SEM, read-out: average optical density (MTT), percentage relative to control
Protocol: as §1, §2, §3, §4, §5, §6, §7
PC-3 (code ATCC: CRL-1435) which is a prostate cancer.
as §8, §9

J82 = experiment: MTT test, J82; format: cell-based; conditions: Homo sapiens, 10^−5 M, 72 hours, control = 100%, mean ± SEM, read-out: average optical density (MTT), percentage relative to control
Protocol: as §1, §2, §3, §4, §5, §6, §7, §12, §8, §9

U-373MG = experiment: MTT test, U-373MG; format: cell-based; conditions: Homo sapiens, U373 MG, 10^−5 M, 72 hours, control = 100%, mean ± SEM, read-out: average optical density (MTT), percentage relative to control
Protocol: as §1, §2, §3, §4, §5, §6, §7
(§14) U-373MG (code ATCC: HTB-17) and U-87MG (code ATCC: HTB-14) which are two glioblastomas,
as §8, §9

U-87MG = experiment: MTT test, U-87MG; format: cell-based; conditions: Homo sapiens, 10^−5 M, 72 hours, control = 100%, mean ± SEM, read-out: average optical density (MTT), percentage relative to control
Protocol: as §1, §2, §3, §4, §5, §6, §7, §14, §8, §9

LoVo = experiment: MTT test, LoVo; format: cell-based; conditions: Homo sapiens, 10^−5 M, 72 hours, control = 100%, mean ± SEM, read-out: average optical density (MTT), percentage relative to control
Protocol: as §1, §2, §3, §4, §5, §6, §7, §11, §8, §9

MCF7 = experiment: MTT test, MCF7; format: cell-based; conditions: Homo sapiens, 10^−5 M, 72 hours, control = 100%, mean ± SEM, read-out: average optical density (MTT), percentage relative to control
Protocol: as §1, §2, §3, §4, §5, §6, §7, §13, §8, §9

Structure (SMILES)	viability at 10 µM (SW1088) [%]	viability at 10 µM (A549) [%]	viability at 10 µM (HCT-15) [%]	viability at 10 µM (A-427) [%]	viability at 10 µM (T24) [%]	MTD at 14 day [1] [mg/kg]	viability at 10 µM (T-47D) [%]	viability at 10 µM (PC-3) [%]	viability at 10 µM (J82) [%]	viability at 10 µM (U-373MG) [%]	viability at 10 µM (U-87MG) [%]	viability at 10 µM (LoVo) [%]	viability at 10 µM (MCF7) [%]
COc1ccc(-c2cc3c(OC)cc(OC)cc3n(C)c2=S)cc1 [CRL8245, 5,7-Dimethoxy-3-(4-methoxyphenyl)-1-methyl-1,2-dihydro-2-quinolinethione]	75.1 ± 2	74.1 ± 2.1	35.8 ± 1.2	69 ± 1.9	51.1 ± 1.9	> 160	59.6 ± 2.9	74.4 ± 1.9	31.1 ± 0.6	63.7 ± 2.7	58.6 ± 1.7	65.5 ± 1.1	46.9 ± 1
COc1cc(OC)c2cc(-c3ccccc3)c(O)nc2c1 [CRL8330, 5,7-Dimethoxy-3-phenyl-1,2-dihydro-2-quinolinone]	73.3 ± 1.8	76.3 ± 2.4	94.7 ± 2.1	59.8 ± 1	57.4 ± 2.3	> 160	77.6 ± 3	48.5 ± 2.1	70.5 ± 2.4	75.5 ± 3.7	86.6 ± 0.7	59.9 ± 4.2	87.2 ± 3
Oc1ccc(-c2cc3c(O)cc(O)cc3nc2O)cc1 [CRL8311, 5,7-Dihydroxy-3-(4-hydroxyphenyl)-1,2-dihydro-2-quinolinone]	80.7 ± 1.7	106 ± 2.4	101 ± 3.6	89.7 ± 2	90 ± 1.9	> 160	108 ± 6.6	122 ± 3.5	127 ± 1.9	113 ± 2.5	91.8 ± 1.3	77.9 ± 1.7	98.8 ± 2.3
COC(=O)CCn1c(=O)c(-c2ccc(OC)cc2)cc2c(OC)cc(OC)cc21 [CRL8318]	75.2 ± 3	86.6 ± 2.5	113 ± 1.7	74 ± 3	81.8 ± 1.4	> 160	100 ± 3.9	79.2 ± 2.8	72.8 ± 1.2	89.9 ± 1.3	78.1 ± 2.4	75.2 ± 2.3	105 ± 2.4
COc1ccc(-c2cc3c(OC)cc(OC)cc3n(CC(=O)O)c2=O)cc1 [CRL8317, 2-[5,7-Dimethoxy-3-(4-methoxyphenyl)-2-oxo-1,2-dihydro-1-quinolinyl]acetic Acid]	103 ± 2.3	94.7 ± 2.2	104 ± 2.6	91.3 ± 2	91.4 ± 4.3	> 160	95 ± 2.5	97.9 ± 1.1	83.6 ± 1.8	91.2 ± 1.9	91 ± 4.1	86.8 ± 2.8	96 ± 2.1
CCOC(=O)Cn1c(=O)c(-c2ccc(OC)cc2)cc2c(OC)cc(OC)cc21 [CRL8314]	85.4 ± 2.5	85.2 ± 1.4	116 ± 4.4	104 ± 3.1	61.9 ± 2.5	> 160	114 ± 2.3	88.6 ± 1.4	33.2 ± 1.2	89.2 ± 2	74.5 ± 3.4	82.9 ± 2.5	72.2 ± 2
COc1ccc(-c2cc3c(OC)cc(OC)cc3nc2S)cc1 [CRL8271, 5,7-Dimethoxy-3-(4-methoxhphenyl)-1,2-dihydro-2-quinolinethione]	102.2 ± 0.5	94.2 ± 4.7	87.2 ± 2.8	84.1 ± 1.9	107 ± 2.3	> 160	90.9 ± 1.7	107 ± 2.7	75.9 ± 1.3	96.2 ± 1.6	78.5 ± 1.7	94.2 ± 2.8	106 ± 2.3
COc1ccc(-c2cc3c(OC)cc(OC)c4c3n(c2=O)CCC4=O)cc1 [CRL8285, 8,10-Dimethoxy-6-(4-methoxyphenyl)-2,3-dihydro-1H,5H-pyrido[3,2,1-ij]quinoline-1,5-dione]	89.8 ± 2.7	92.5 ± 3.5	90.6 ± 1.6	78.4 ± 1.6	72.7 ± 1.8	> 160	89.3 ± 1.7	93.4 ± 1.8	68.7 ± 2.9	96.9 ± 1.6	85.1 ± 2	103 ± 3.1	83.7 ± 2.3
COc1ccc(-c2cc3c(OC)cc(OC)cc3n(CCCN(C)C)c2=O)cc1 [CRL8254, 1-[3-(Dimethylamino)propyl]-5,7-dimethoxy-3-(4-methoxyphenyl)-1,2-dihydro-2-quinolinone]	128 ± 2.2	96.9 ± 1.5	94.4 ± 3.5	20.2 ± 2.3	103 ± 2.9	> 160	55.2 ± 4.1	97.9 ± 1.2	87.8 ± 1	7.6 ± 1.3	105 ± 3.6	91.8 ± 2.7	81.9 ± 0.6
Cn1c(=O)c(-c2ccc(O)cc2)cc2c(O)cc(O)cc21 [CRL8321, 5,7-Dihydroxy-3-(4-hydroxyphenyl)-1-methyl-1,2-dihydro-2-quinolinone]	97.2 ± 1.8	99.4 ± 1.3	118 ± 1.6	107 ± 1.4	103 ± 1.7	> 160	91.5 ± 1.2	102 ± 3.1	88.6 ± 0.9	97.1 ± 2.4	96.5 ± 1.2	108 ± 1.1	96.6 ± 0.9
COc1cccc2cc(-c3ccccc3)c(O)nc12 [CRL8339, 8-Methoxy-3-phenyl-1,2-dihydro-2-quinolinone]	87.1 ± 2.6	49.6 ± 2.2	65.5 ± 2.2	52.3 ± 2.3	87.4 ± 2	> 160	81 ± 2.8	84.3 ± 1.8	83.7 ± 0.6	73.6 ± 1.8	69.1 ± 2.1	74.4 ± 1.8	82.7 ± 3.5
